Measured values taken from publication PMC8770514, “Induction of CTH expression in response to amino acid starvation confers resistance to anti-LAT1 therapy in MDA-MB-231 cells” (Scientific Reports, 2022).

Biological target: T1, L type amino acid transporter 1 (LAT1) (Homo sapiens, UniProt Q01650)
T1 construct: gene SLC7A5; with 4F2 heavy chain (4F2hc)
Experiment: inhibition of […] L-leucine uptake ([…] min, […] °C) in MDA-MB-231 cells (endogenous LAT1); […] in T-47D cells
Format: cell-based

T1 sequence (Q01650 whole entry): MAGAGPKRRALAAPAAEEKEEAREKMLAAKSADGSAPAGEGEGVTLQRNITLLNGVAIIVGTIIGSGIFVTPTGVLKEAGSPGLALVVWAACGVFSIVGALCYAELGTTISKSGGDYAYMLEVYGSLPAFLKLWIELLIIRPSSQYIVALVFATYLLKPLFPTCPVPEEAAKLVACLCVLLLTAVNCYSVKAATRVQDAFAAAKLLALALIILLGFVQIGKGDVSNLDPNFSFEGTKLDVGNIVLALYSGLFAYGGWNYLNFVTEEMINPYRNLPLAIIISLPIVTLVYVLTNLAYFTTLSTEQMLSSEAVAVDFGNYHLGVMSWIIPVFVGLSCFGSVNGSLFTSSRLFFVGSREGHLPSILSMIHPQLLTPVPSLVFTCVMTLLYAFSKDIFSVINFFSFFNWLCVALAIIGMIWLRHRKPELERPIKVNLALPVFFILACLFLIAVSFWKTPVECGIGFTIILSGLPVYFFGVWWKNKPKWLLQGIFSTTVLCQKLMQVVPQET
T1 sequence (P08195 103-630 partner): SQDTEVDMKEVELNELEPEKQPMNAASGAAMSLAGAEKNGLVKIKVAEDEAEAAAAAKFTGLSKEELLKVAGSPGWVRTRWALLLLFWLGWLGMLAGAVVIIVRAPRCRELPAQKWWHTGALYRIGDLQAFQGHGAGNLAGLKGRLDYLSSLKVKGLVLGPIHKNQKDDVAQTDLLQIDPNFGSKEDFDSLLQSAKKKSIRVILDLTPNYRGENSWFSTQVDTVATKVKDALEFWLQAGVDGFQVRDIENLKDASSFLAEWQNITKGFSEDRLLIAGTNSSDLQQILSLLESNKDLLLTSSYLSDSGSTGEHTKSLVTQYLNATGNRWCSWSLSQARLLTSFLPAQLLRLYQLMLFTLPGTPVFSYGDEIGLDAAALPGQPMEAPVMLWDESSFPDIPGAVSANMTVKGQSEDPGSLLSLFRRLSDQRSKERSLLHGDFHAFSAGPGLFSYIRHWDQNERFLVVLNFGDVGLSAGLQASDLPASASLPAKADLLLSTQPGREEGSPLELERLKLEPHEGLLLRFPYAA

IC50: 0.06 ± 0.02 µM
Structure (SMILES): Nc1cc(COc2c(Cl)cc(C[C@H](N)C(=O)O)cc2Cl)c2oc(-c3ccccc3)nc2c1 [JPH203, (S)-2-amino-3-(4-((5-amino-2-phenylbenzo[d]oxazol-7-yl)methoxy)-3,5-dichlorophenyl)-propanoic acid]
